According to patent US20200354426A1 (MEDIMMUNE LIMITED, priority 2016, published 2020):
Numbered stars: 1 amine (or outer) side, 2 acyl side, 3 side chain; on linkers, the order of the positions; unused ones are H or OH. Side chains are listed from the residue outwards. Peptide text beside a SMILES is read from it. * marks the point of attachment. γGlu = O=C(O)[C@H](CCC(=O)[*:2])N[*:1]; Palmitoyl = CCCCCCCCCCCCCCCC(=O)*

How the values were obtained:
Rat GlucR = target: T1, Rat GlucR (Rattus norvegicus, UniProt P30082); assay: cAMP assay in 3.2% rat serum albumin (assay 2); format: cell-based; settings: for Rat GlucR/GLP1R Ratio: […] rat serum albumin, relative potencies vs natural ligands
T1 construct: expressed in transfected cells
T1 sequence (P30082 27-485): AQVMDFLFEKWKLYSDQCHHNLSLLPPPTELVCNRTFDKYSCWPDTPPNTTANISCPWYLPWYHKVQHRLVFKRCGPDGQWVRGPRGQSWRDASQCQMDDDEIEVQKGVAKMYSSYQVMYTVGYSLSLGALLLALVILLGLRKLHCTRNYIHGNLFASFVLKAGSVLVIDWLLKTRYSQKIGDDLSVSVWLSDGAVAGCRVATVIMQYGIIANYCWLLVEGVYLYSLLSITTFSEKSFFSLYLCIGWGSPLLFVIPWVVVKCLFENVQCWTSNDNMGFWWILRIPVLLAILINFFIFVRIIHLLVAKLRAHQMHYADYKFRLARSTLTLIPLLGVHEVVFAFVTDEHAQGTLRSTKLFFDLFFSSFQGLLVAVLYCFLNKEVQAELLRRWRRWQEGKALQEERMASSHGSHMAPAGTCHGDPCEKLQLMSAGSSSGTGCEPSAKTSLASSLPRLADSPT

Human GlucR = target: T2, Human GlucR (Homo sapiens, UniProt P47871); assay: cAMP assay in 4.4% human serum albumin (assay 2); format: cell-based
T2 construct: expressed in transfected cells
T2 sequence (P47871 26-477): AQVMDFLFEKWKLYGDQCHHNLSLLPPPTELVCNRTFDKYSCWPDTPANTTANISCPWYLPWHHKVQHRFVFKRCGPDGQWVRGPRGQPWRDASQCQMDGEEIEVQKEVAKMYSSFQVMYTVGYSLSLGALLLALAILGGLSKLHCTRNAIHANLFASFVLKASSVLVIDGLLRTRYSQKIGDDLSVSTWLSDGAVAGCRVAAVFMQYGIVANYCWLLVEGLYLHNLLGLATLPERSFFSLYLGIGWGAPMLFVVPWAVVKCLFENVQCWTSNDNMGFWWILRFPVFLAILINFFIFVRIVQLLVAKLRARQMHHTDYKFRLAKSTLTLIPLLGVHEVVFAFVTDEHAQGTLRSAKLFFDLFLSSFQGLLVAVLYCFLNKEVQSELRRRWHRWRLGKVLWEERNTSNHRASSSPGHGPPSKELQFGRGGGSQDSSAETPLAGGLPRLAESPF
Description: Cryopreserved cell stocks were prepared in 1× cell freezing medium-DMSO serum free (Sigma Aldrich) at 2×10^7/vial and stored at −80° C. […] Peptides were serially diluted in DMSO and then diluted 100 fold into DMEM containing serum albumin at stated final concentration. […] Cells were added to the assay plates and incubated for 30 min at room temperature. Following incubation the assay was stopped and cAMP levels measured using the HTRF® dynamic d2 cAMP assay kit available from CisBio Bioassays, as per the manufacture's guidelines. Plates were read on Perkin Elmer ENVISION® fluorescence plate readers. Human and rat serum albumin were purchased from Sigma Aldrich and mouse serum albumin from Equitech Bio Ltd.
Data was transformed to % Delta F as described in manufacturer's guidelines and analysed by 4-parameter logistic fit to determine EC50 values. […] For instance. […] To compare the balance of activities at the GLP1R and GlucR between different peptides and across different conditions, these can be correlated using the calculation below, where the EC50's are related to those of the natural ligands.

[1] = system: diet induced obesity (DIO) mouse model; assay: Diet induced obesity (DIO) mouse model, study B; format: in vivo; settings: for HOMA / BeHy / FGF21 / Hepatic TG / Plasma Cholesterol / Plasma TG: day 14
Description: Female C57/B16JHsdOla (obtained from Harlan Laboratories. UK) were started on a high fat diet of D12492 (Research Diets, NJ, USA) and a chocolate confection, delicato ball (Delicata Bakverk, Sweden) at 9-11 weeks of age, and were maintained on the diet for 16 weeks prior to arrival to the animal facility, during a three week acclimation period and during drug treatment, caloric content of the two components of the diet is shown in Table 11. The mice were divided into 9 groups (n=5-6), and treatment was started at 29 weeks of age.
The body weight of the animals was monitored daily throughout the dosing period. At day 14, blood samples for the measurement of plasma glucose and insulin from conscious mice were obtained after a 4-hour fasting period. Mice were then anaesthetized using isoflourane and terminal blood was collected from the capillary bed behind the eye. The following parameters were measured: blood chemistry measurements of triglycerides, total cholesterol, non-esterified fatty acids (NEFA), beta-hydroxybutyrate and fibroblast growth factor 21 (FGF21) (Table 16 and Table 17 below).

[2] = system: overweight or obese subjects with type 2 diabetes mellitus; assay: Phase 1/2 multiple-ascending-dose study of G933, Cohorts 1-6 (efficacy, PK, safety); format: in vivo, human
Description: Approximately 75 overweight or obese subjects with relatively well controlled type 2 diabetes mellitus (T2DM) are enrolled to participate in the study. The enrolled subjects meet the following inclusion and exclusion criteria.
Exclusion Criteria: • Any condition that would interfere with evaluations of the investigational product or interpretation of subject safety or study results. […] Patients who utilize benzodiazepines for chronic anxiety or sleep disorders may be permitted to enter the study; • History of severe allergy/hypersensitivity or ongoing clinically important allergy/hypersensitivity; • Whole blood or red blood cell donation, or any blood loss >500 mL during the 2 months prior to screening; • Received another new chemical entity (defined as a compound that has not been approved for marketing), or has participated in any other clinical study that included drug treatment within at least 30 days or 5 half-lives prior to the first administration of investigational product in this study (whichever is longer). The period of exclusion to begin 30 days or 5 half-lives of investigational product after the final dose, or after the last visit, whichever is longest.
Part A consists of 3 cohorts.
Part B consists of 1 cohort.
The initial dose is 100 μg.
Approximately 32 overweight or obese subjects with relatively well controlled type 2 diabetes mellitus (T2DM) are enrolled to participate in the study. The enrolled subjects meet the inclusion and exclusion criteria described in Example 5 with the following exceptions:
Inclusion Criteria: • Cohort 5 and 6 subjects must be willing and able to self-administer daily subcutaneous (SC) injections following an initial self-injection of placebo (or normal saline) during the screening period.
Exclusion Criteria: • Abnormal vital signs, after 10 minutes of supine rest, are defined as any of the following: (a) If systolic BP<90 mm Hg or ≥140 mm Hg; (b) Diastolic BP<50 mm Hg or ≥90 mm Hg; or (c) HR<45 or >85 bpm; • Unstable angina pectoris or stable angina pectoris classified higher than Canadian Cardiovascular Society class II or any previous medical history of myocardial infarction or stroke, or a history of a transient ischemic attack within the prior 12 months.
A randomized, double-blind, multiple-ascending dose study is performed. This study consists of 2 cohorts: cohort 5 and cohort 6. […] Cohorts 5 and 6 have approximately 32 subjects total and are run in parallel.
The study consists of an inpatient up-titration evaluation period beginning on Day 3 for both Cohorts 5 and 6 and an outpatient follow-up period. The first 4 days and the final day of dosing at 300 μg […].
Subjects are admitted to the clinic as described in Example 5 for Cohorts 1-4. […] Subjects have a second inpatient period for the initiation of the 300 μg dose ending on the fourth day at that dose followed by at-home self administration.
Additional time points include before commencing the 300 μg dose (Day 16 for Cohort 5 and Day 11 for Cohort 6) and at the end of dosing (Day 22 for Cohort 5 and Day 17 for Cohort 6). The MMT are performed as described in Example 5.

[3] = Cohort 4, after 41 days, p<0.001

CCCCCCCCCCCCCCCC(=O)N[C@@H](CCC(=O)NCCCC[C@H](NC(=O)[C@H](CCCCN)NC(=O)[C@H](CO)NC(=O)[C@H](Cc1ccc(O)cc1)NC(=O)[C@H](CC(=O)O)NC(=O)[C@H](CO)NC(=O)[C@@H](NC(=O)[C@H](Cc1ccccc1)NC(=O)[C@@H](NC(=O)CNC(=O)[C@H](CCC(N)=O)NC(=O)[C@H](CO)NC(=O)[C@@H](N)Cc1c[nH]cn1)[C@@H](C)O)[C@@H](C)O)C(=O)N[C@@H](CC(C)C)C(=O)N[C@@H](CC(=O)O)C(=O)N[C@@H](CO)C(=O)N[C@@H](CCC(=O)O)C(=O)N[C@@H](CCCNC(=N)N)C(=O)N[C@@H](C)C(=O)N[C@@H](CCCNC(=N)N)C(=O)N[C@@H](CC(=O)O)C(=O)N[C@@H](Cc1ccccc1)C(=O)N[C@H](C(=O)N[C@@H](C)C(=O)N[C@@H](Cc1c[nH]c2ccccc12)C(=O)N[C@@H](CC(C)C)C(=O)N[C@H](C(=O)N[C@@H](C)C(=O)NCC(=O)NCC(N)=O)C(C)C)C(C)C)C(=O)O [Peptide G730] (H-HSQGTFTSDYSKK([γGlu-Palmitoyl])LDSERARDFVAWLVAGG-NH2; N-terminus assumed)
EC50 (Rat GlucR; 3.2% rat serum albumin): 45.1 nM | Rat GlucR/GLP1R Ratio (Rat GlucR): 0.06 | EC50 (Human GlucR): 0.402 nM | Human GlucR/GLP1R Ratio (Human GlucR; relative potency GlucR / relative potency GLP1R vs natural ligands): 0.122

L-Histidyl-L-seryl-L-glutaminylglycyl-L-threonyl-L-phenylalanyl-L-threonyl-L-seryl-L-alpha-aspartyl-(N6-[N-(1-oxohexadecyl)-L-gamma-gutamyl])L-lysy-L-sery-L-alpha-glutamyl-L-tyrosyl-L-leucyl-L-alpha-aspartyl-L-seryl-L-alpha-glutamyl-L-arginyl-L-alanyl-L-arginyl-L-alpha-L-aspartyl-L-phenylalanyl-L-valyl-L-alanyl-L-tryptophyl-L-leucyl-L-alpha-glutamyl-L-alanylglycylglycine [Peptide G933]
BW day 14 (% change of vehicle mean) ([1]; 5 nmol/kg sc twice daily 14 days): −11% | HOMA ([1]; 5 nmol/kg sc twice daily): 3.31 | BW day 14 (% change of vehicle mean) ([1]; 10 nmol/kg sc twice daily 14 days): −19% | HOMA ([1]; 10 nmol/kg sc twice daily): 1.98 | body weight over the 14 day dosing period ([1]; DIO mice, FIGS. 5-8): dose dependent and continuous weight loss | BeHy ([1]; dose in Table 17: 5 nmol/kg): 593.56 µmol/L | FGF21 ([1]; dose in Table 17: 5 nmol/kg): 4459 pg/mL | Hepatic TG ([1]; dose in Table 17: 5 nmol/kg): 14.7 g TB/100 g tissue | Plasma Cholesterol ([1]; dose in Table 17: 5 nmol/kg): 2.32 mM | Plasma TG ([1]; dose in Table 17: 5 nmol/kg): 0.16 mM | BeHy ([1]; dose in Table 17: 50 nmol/kg): 673.08 µmol/L | FGF21 ([1]; dose in Table 17: 50 nmol/kg): 2582 pg/mL | Hepatic TG ([1]; dose in Table 17: 50 nmol/kg): 13.3 g TB/100 g tissue | Plasma Cholesterol ([1]; dose in Table 17: 50 nmol/kg): 2.88 mM | Plasma TG ([1]; dose in Table 17: 50 nmol/kg): 0.39 mM | Fasting Glucose (change) ([2]; Cohort 1, 100 ug, n = 6): -28.00 mg/dL | Weight (change) ([2]; Cohort 1, 100 ug, n = 6): -1.1 kg | Fasting Glucose (change) ([2]; Cohort 2, 150 ug, n = 6): -17.90 mg/dL | Weight (change) ([2]; Cohort 2, 150 ug, n = 6): -0.5 kg | weight differential ([2]; Cohort 3 (up to 200 μg, 15 days)): more than 2 kg | Fasting Glucose (change) ([2]; Cohort 3, 200 ug, n = 6): -43.20 mg/dL | Weight (change) ([2]; Cohort 3, 200 ug, n = 6): -2.4 kg | Fasting Glucose (change) ([2]; Cohort 4, 200 ug, n = 25): -32.62 mg/dL | Weight (change) ([2]; Cohort 4, 200 ug, n = 25): -2.11 kg | patients who lost at least 2% of their weight ([2]; Cohort 4, after 41 days): 84% | patients who lost at least 5 kg ([2]; Cohort 4, after 41 days): 44% | percent of weight lost ([2]; Cohort 4, after 41 days): about 4.18% | weight lost ([2]; Cohort 4, after 41 days): about 3.83 kg | HbA1c reduction ([2]; Cohort 4, after 41 days of treatment): 0.92% | percent weight loss difference between G933 and placebo [2, 3]: 2.47% | weight loss difference between G933 and placebo [2, 3]: 2.12 kg | mean reduction in glucose AUC from baseline (day 1) to day 41 ([2]; Cohort 4, up to 200 μg, 90% C.I. −47.1, −29.0): 38.5% | mean relative reduction in liver fat percentage from baseline versus placebo ([2]; Cohort 4, 95% CI 7.2, 33.9, p=0.004): 20.5% | reduction in liver volume compared to placebo ([2]; Cohort 4, (−0.24, −0.03), p=0.01): 0.14 L | mean HbA1c on day 42 ([2]; Cohort 4, baseline mean […]): 6.3% | glucose AUC reduction ([2]; Cohort 5 (up to 300 μg, 22 days), 90% C.I. −49.9, −33.5): 41.7% | Fasting Glucose (change) ([2]; Cohort 5, 300 ug, n = 12): -24.40 mg/dL | Weight (change) ([2]; Cohort 5, 300 ug, n = 12): -2.11 kg | weight loss difference versus placebo ([2]; Cohort 5, after 22 days): 2.11 kg | weight lost ([2]; Cohort 5, after 22 days): about 3.09 kg | glucose AUC reduction ([2]; Cohort 6 (up to 300 μg, 17 days), C.I. −43.3, −28.3): 35.8% | Fasting Glucose (change) ([2]; Cohort 6, 300 ug, n = 12): -36.94 mg/dL | Weight (change) ([2]; Cohort 6, 300 ug, n = 12): -1.88 kg | weight loss difference versus placebo ([2]; Cohort 6, after 17 days): 1.88 kg | weight lost ([2]; Cohort 6, after 17 days): about 2.23 kg | mixed-meal test glucose AUC reduction ([2]; Cohorts 1-3 (100-200 μg QD)): > 40% | weight loss ([2]; Cohorts 1-3, dose dependent trend): up to 2 kg | Rat GlucR/GLP1R Ratio (Rat GlucR): 0.27
